Experimental data from patent publication US7705178B2, “Altering the crystal size distribution of N-(phosphonomethyl) iminodiacetic acid for improved filtration and product quality” (priority 2005, dated 2010).
Values joined by “and” are separate entries in the source; they are usually repeats but may differ in a detail not shown here. Equal entries are not always repeated.

Tests used:
[1] = type: physicochemical; settings: room temperature (about 25 °C); mother liquor having a relatively high impurity content
Description: It has been determined that glyphosine and NMG are more soluble in PMIDA mother liquor than is PMIDA. […] Those solubility limits are higher than the impurity concentration typically encountered in the prior art processes, thus it is believed that it is unlikely that impurity partitioning to the PMIDA wetcake results from solubility considerations such as impurities precipitating from solution onto the forming PMIDA crystal.

[2] = Equilibrium PMIDA concentration in PM reactor mother liquor (interrupted feed experiments); type: physicochemical; settings: for Equilibrium PMIDA in PM mother liquor (wt %): 60:40 DSIDA split
Description: PMIDA solubility limits change throughout the PM reaction making supersaturation prediction problematic. Several laboratory experiments were performed at 105° C. using a 60:40 DSIDA split between the hydrolyzer and PM reactor in order to evaluate supersaturation limits during seeding and the initial stages of the crystallization event. The PM feed amounts were altered such that only a portion of the typical feed amounts were used in order to simulate various stages of the PM reaction step. […] It is believed, without being bound to any particular theory, that as NaCl is produced during the PM reaction, and HCl is consumed, PMIDA solubility is suppressed. Table B presents PMIDA solubility in the PM reactor mother liquor at varying amounts of formalin addition.
Several laboratory experiments using an interrupted feed were performed to evaluate supersaturation limits during seeding and the initial stages of the crystallization event. The PM feed amounts were altered such that only a portion of the typical feed amounts were used in order to simulate various stages of the PM reaction step. The first two experiments were designed such that only about 40% of the typical feed amounts were used in order to mimic reactor conditions that occurred during seed addition of early-seeding experiments. These experiments utilized a 60:40 DSIDA split between the hydrolyzer and PM reactor, 43% formalin, and DSIDA1. In the first experiment, a spike of about 0.3% of NMG on a final batch weight basis was added to the reactor following the hydrolysis step. Following the PM reaction, about 6.4% of seed on a final batch weight basis were added after the feeds were completed and a sample was removed. Post-seed samples were removed at 20, 40 and 100 minutes following the seed addition to determine the rate at which supersaturation would be relieved. All of the samples were taken at approximately 105° C. As the temperature decreased, additional samples were taken at 75° C. and 50° C. The first experiment data are in Table 9A below.
In the second experiment, no NMG was added after the hydrolysis step, and seed crystals were not added. Post-feed samples were removed at 0, 60 and 240 minutes following completion of the feed addition. The second experiment data are in Table 9B below.
A third experiment was designed such that only about 70% of the typical feed amounts were used in order to simulate PM reactor conditions when the PMIDA crystallization event typically takes place. The experiment utilized a 60:40 DSIDA split between the hydrolyzer and PM reactor, 37% formalin, and DSIDA1. No NMG was added after the hydrolysis step, and seed crystals were not added. Following the completion of the feeds, the reactor contents were allowed to mix at 105° C. for approximately 21 hours before sampling.
The fourth experiment was designed such that 100% of the typical feed amounts were added to the reactor in order to determine the equilibrium PMIDA solubility of the mother liquor after all of the feeds had been added. This experiment utilized a 60:40 DSIDA split between the hydrolyzer and PM reactor, 37% formalin, and DSIDA1. No NMG was added after the hydrolysis step, and seed crystals were not added. Following completion of the feeds, the reactor contents were allowed to mix at 105° C. for approximately 21 hours before sampling. […] Thus, it is believed, without being bound to any particular theory, that as the PM reaction progresses, supersaturation increase is a function of both PMIDA in situ generation and a decreasing solubility limit.
A fifth experiment was designed to determine the equilibrium mother liquor PMIDA concentration just prior to the crystallization event when a 75:25 DSIDA feed split is used. In addition to the feed split, the experiment used 37% formalin and DSIDA1. No NMG was added after the hydrolysis step, and seed crystals were not added. Mother liquor samples were removed during the course of the experiment. […]

[3] = PMIDA solubility in acidified PM mother liquor; type: physicochemical; settings: commercial batch mother liquor acidified with HCl
Description: For instance, mother liquor recovered at the end of a commercial scale batch was acidified with HCl in order to have an HCl content approximately equivalent to that found at the end of the PM reaction.
The data in Table 9B indicate that low levels of supersaturation will relieve over time. […] Solubility experiments indicate that the PMIDA solubility limit in acidified ML at 105° C. is between about 6.4 wt % and about 8.5 wt %. As noted in Tables 9A and 9B, equilibrium samples were also taken at various temperatures.

Row | Structure (SMILES) | solubility limit in PMIDA mother liquor [1] | Equilibrium PMIDA in PM mother liquor (wt %) ([2]; 40% of total formalin added to PM reactor, 105 °C) [% wt %] | Equilibrium PMIDA in PM mother liquor (wt %) ([2]; 70% of total formalin added to PM reactor, 105 °C) | Equilibrium PMIDA in PM mother liquor (wt %) ([2]; 100% of total formalin added to PM reactor, 105 °C) | PM mother liquor PMIDA concentration, averaged equilibrium data ([2]; 105 °C, average of interrupted runs 1 and 2) | ML PMIDA (wt %), equilibrium ([2]; PM interrupted run 1 (about 40% of feeds, seeded, NMG spike), equilibrium at 50 °C) [wt %] | ML PMIDA (wt %), equilibrium ([2]; PM interrupted run 1 (about 40% of feeds, seeded, NMG spike), equilibrium at 75 °C) [wt %] | ML PMIDA (wt %), equilibrium ([2]; PM interrupted run 1 (about 40% of feeds, seeded, NMG spike), equilibrium at 105 °C) [wt %] | ML PMIDA (wt %), equilibrium ([2]; PM interrupted run 2 (about 40% of feeds, no seed, no NMG), equilibrium at 50 °C) [wt %] | ML PMIDA (wt %), equilibrium ([2]; PM interrupted run 2 (about 40% of feeds, no seed, no NMG), equilibrium at 75 °C) [wt %] | ML PMIDA (wt %), equilibrium ([2]; PM interrupted run 2 (about 40% of feeds, no seed, no NMG), equilibrium at 105 °C) [wt %] | ML PMIDA (wt %), equilibrium ([2]; PM interrupted run 5, 75:25 DSIDA split, 84.0% of total formalin added, equilibrium at 105 °C, about 19 hours) [wt %] | PMIDA Solubility in PM Mother Liquor, PM (wt %) ([3]; 20 °C) | PMIDA Solubility in PM Mother Liquor, PM (wt %) ([3]; 50 °C) | PMIDA Solubility in PM Mother Liquor, PM (wt %) ([3]; 70 °C) | PMIDA Solubility in PM Mother Liquor, PM (wt %) ([3]; 90 °C) | PMIDA Solubility in PM Mother Liquor, PM (wt %) ([3]; 115 °C)
1 | CN(CC(=O)O)CP(=O)(O)O [NMG, N-methyl-N-(phosphonomethyl)glycine] | about 3.6 wt % | – | – | – | – | – | – | – | – | – | – | – | – | – | – | – | –
2 | O=C(O)CN(CC(=O)O)CP(=O)(O)O [PMIDA, N-(phosphonomethyl)iminodiacetic acid] | – | 12.6 | 8.6 wt % and 8.6% wt % | 5.9 wt % and 5.9% wt % | about 16.4 wt % | 3.3 | 5.3 | 12.4 | 4.0 | 8.1 | 13.8 | 14.4 | 0.52 | 1.26 | 2.29 | 4.15 | 8.72
3 | O=C(O)CN(CP(=O)(O)O)CP(=O)(O)O [glyphosine, N,N-bis-(phosphonomethyl)glycine] | about 3.9 wt % | – | – | – | – | – | – | – | – | – | – | – | – | – | – | – | –
